# Measurements from patent publication US12310975B2, “Modulators of BCL6 proteolysis and associated methods of use” (Arvinas Operations, Inc., priority 2019, dated 2025).
# Biological target: BCL6 (Homo sapiens (Human), UniProt P41182)
# Assay: Immunofluorescence high content imaging of BCL6 degradation in T47D cells
# Format: cell-based
# Conditions: not given
# Outline: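 Following a 3-day incubation with serially diluted bifunctional compounds (final top 0.1 or 1 μM), T47D cells were PFA-fixed and immunostained for BCL6. Nuclear BCL6 signal was captured on a high-content imager.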
row,Structure (SMILES),IC50 [nM]
1,"CNC(=O)CCC1Oc2cc(Nc3nc(N4CCN(C(C)(C)C5CCN(c6ccc7c(c6)C(=O)N(C6CCC(=O)NC6=O)C7=O)CC5)CC4)ncc3Cl)ccc2N(C)C1=O (centres unmarked) [compound 287, 3-[7-({5-chloro-2-[4-(2-{1-[2-(2,6-dioxopiperidin-3-yl)-1,3-dioxo-2,3-dihydro-1H-isoindol-5-yl]piperidin-4-yl}propan-2-yl)piperazin-1-yl]pyrimidin-4-yl}amino)-4-methyl-3-oxo-3,4-dihydro-2H-1,4-benzoxazin-2-yl]-N-methylpropanamide]",≥ 100
2,"CNC(=O)COc1cc2cc(Nc3nc(N4CCC(OC5CCCN(c6ccc7c(c6)C(=O)N(C6CCC(=O)NC6=O)C7=O)CC5)CC4)ncc3Cl)ccc2n(C)c1=O (centres unmarked) [compound 242, 2-((6-((5-chloro-2-(4-((1-(2-(2,6-dioxopiperidin-3-yl)-1,3-dioxoisoindolin-5-yl)azepan-4-yl)oxy)piperidin-1-yl)pyrimidin-4-yl)amino)-1-methyl-2-oxo-1,2-dihydroquinolin-3-yl)oxy)-N-methylacetamide]",≥ 100
3,"CCn1c(=O)c(OCC(=O)NC)cc2cc(Nc3nc(N4CCC(CN5CC6(C5)CN(c5ccc7c(c5)C(=O)N(C5CCC(=O)NC5=O)C7=O)C6)CC4)ncc3Cl)ccc21 (centres unmarked) [compound 298, 2-{[6-({5-chloro-2-[4-({6-[2-(2,6-dioxopiperidin-3-yl)-1,3-dioxo-2,3-dihydro-1H-isoindol-5-yl]-2,6-diazaspiro[3.3]heptan-2-yl}methyl)piperidin-1-yl]pyrimidin-4-yl}amino)-1-ethyl-2-oxo-1,2-dihydroquinolin-3-yl]oxy}-N-methylacetamide]",< 10

# Same assay, conditions: T47D
row,Structure (SMILES),Dmax [%]
1,"CCn1c(=O)c(OCC(=O)NC)cc2cc(Nc3nc(N4CCC(CN5CC6(C5)CN(c5ccc7c(c5)C(=O)N(C5CCC(=O)NC5=O)C7=O)C6)CC4)ncc3Cl)ccc21 (centres unmarked) [compound 298, 2-{[6-({5-chloro-2-[4-({6-[2-(2,6-dioxopiperidin-3-yl)-1,3-dioxo-2,3-dihydro-1H-isoindol-5-yl]-2,6-diazaspiro[3.3]heptan-2-yl}methyl)piperidin-1-yl]pyrimidin-4-yl}amino)-1-ethyl-2-oxo-1,2-dihydroquinolin-3-yl]oxy}-N-methylacetamide]",50 to 70

# Same assay, conditions: T47D cells
Structure (SMILES),IC50 [nM],Dmax [%]
"CNC(=O)COc1cc2cc(Nc3nc(N4CCN(CC5CCN(c6ccc(C(=O)NC7CCC(=O)NC7=O)c(OC(C)C)c6)CC5)CC4)ncc3Cl)ccc2n(C)c1=O (centres unmarked) [compound 358, 4-[4-({4-[5-chloro-4-({1-methyl-3-[(methylcarbamoyl)methoxy]-2-oxo-1,2-dihydroquinolin-6-yl}amino)pyrimidin-2-yl]piperazin-1-yl}methyl)piperidin-1-yl]-N-(2,6-dioxopiperidin-3-yl)-2-(propan-2-yloxy)benzamide]",≥ 100,–
"CCn1c(=O)c(OCC(=O)NC)cc2cc(Nc3nc(N4CCN(CC5CCN(c6ccc(C(=O)NC7CCC(=O)NC7=O)c(OC)c6)CC5)CC4)ncc3Cl)ccc21 (centres unmarked) [compound 375, 4-[4-({4-[5-chloro-4-({1-ethyl-3-[(methylcarbamoyl)methoxy]-2-oxo-1,2-dihydroquinolin-6-yl}amino)pyrimidin-2-yl]piperazin-1-yl}methyl)piperidin-1-yl]-N-(2,6-dioxopiperidin-3-yl)-2-methoxybenzamide]",< 10,50 to 70
"CNC(=O)COc1cc2cc(Nc3nc(N4CCC(CN5[C@H](C)CN(c6cccc7c6C(=O)N(C6CCC(=O)NC6=O)C7=O)C[C@@H]5C)CC4)ncc3Cl)ccc2n(C(C)C)c1=O (mixture of isomers) [compound 381, rac-2-[(6-{[5-chloro-2-(4-{[(2R,6S)-4-[2-(2,6-dioxopiperidin-3-yl)-1,3-dioxo-2,3-dihydro-1H-isoindol-4-yl]-2,6-dimethylpiperazin-1-yl]methyl}piperidin-1-yl)pyrimidin-4-yl]amino}-2-oxo-1-(propan-2-yl)-1,2-dihydroquinolin-3-yl)oxy]-N-methylacetamide]",< 10,50 to 70
"CNC(=O)COc1cc2cc(Nc3nc(N4CC5(CC(OC6CCN(c7ccc8c(c7)C(=O)N(C7CCC(=O)NC7=O)C8=O)CC6)C5)C4)ncc3Cl)ccc2n(C(C)C)c1=O (centres unmarked) [compound 405, 2-{[6-({5-chloro-2-[6-({1-[2-(2,6-dioxopiperidin-3-yl)-1,3-dioxo-2,3-dihydro-1H-isoindol-5-yl]piperidin-4-yl}oxy)-2-azaspiro[3.3]heptan-2-yl]pyrimidin-4-yl}amino)-2-oxo-1-(propan-2-yl)-1,2-dihydroquinolin-3-yl]oxy}-N-methylacetamide]",≥ 100,–
"CNC(=O)COc1cc2cc(Nc3nc(N4CC5(CC(OC6CCN(c7cccc8c7C(=O)N(C7CCC(=O)NC7=O)C8=O)CC6)C5)C4)ncc3Cl)ccc2n(C(C)C)c1=O (centres unmarked) [compound 406, 2-{[6-({5-chloro-2-[6-({1-[2-(2,6-dioxopiperidin-3-yl)-1,3-dioxo-2,3-dihydro-1H-isoindol-4-yl]piperidin-4-yl}oxy)-2-azaspiro[3.3]heptan-2-yl]pyrimidin-4-yl}amino)-2-oxo-1-(propan-2-yl)-1,2-dihydroquinolin-3-yl]oxy}-N-methylacetamide]",< 10,≥ 70
"CNC(=O)COc1cc2cc(Nc3nc(NCCc4ccc(C(=O)NC5CCC(=O)NC5=O)nc4)ncc3Cl)ccc2n(C(C)C)c1=O (centres unmarked) [compound 373, 5-(2-{[5-chloro-4-({3-[(methylcarbamoyl)methoxy]-2-oxo-1-(propan-2-yl)-1,2-dihydroquinolin-6-yl}amino)pyrimidin-2-yl]amino}ethyl)-N-(2,6-dioxopiperidin-3-yl)pyridine-2-carboxamide]",≥ 100,–
"CNC(=O)COc1cc2cc(Nc3nc(N4CCC5(CC4)CN(CC4CCN(c6cccc7c6C(=O)N(C6CCC(=O)NC6=O)C7=O)CC4)C5)ncc3Cl)ccc2n(C(C)C)c1=O (centres unmarked) [compound 385, 2-{[6-({5-chloro-2-[2-({1-[2-(2,6-dioxopiperidin-3-yl)-1,3-dioxo-2,3-dihydro-1H-isoindol-4-yl]piperidin-4-yl}methyl)-2,7-diazaspiro[3.5]nonan-7-yl]pyrimidin-4-yl}amino)-2-oxo-1-(propan-2-yl)-1,2-dihydroquinolin-3-yl]oxy}-N-methylacetamide]",< 10,50 to 70
"CNC(=O)COc1cc2cc(Nc3nc(N4CCC5(CC4)CC(OC4CCN(c6cccc7c6CN(C6CCC(=O)NC6=O)C7=O)CC4)C5)ncc3Cl)ccc2n(C(C)C)c1=O (centres unmarked) [compound 427, 2-{[6-({5-chloro-2-[2-({1-[2-(2,6-dioxopiperidin-3-yl)-1-oxo-2,3-dihydro-1H-isoindol-4-yl]piperidin-4-yl}oxy)-7-azaspiro[3.5]nonan-7-yl]pyrimidin-4-yl}amino)-2-oxo-1-(propan-2-yl)-1,2-dihydroquinolin-3-yl]oxy}-N-methylacetamide]",< 10,≥ 70
"CNC(=O)COc1cc2cc(Nc3nc(N4CCN(CC5CCN(c6cccc(C(=O)NC7CCC(=O)NC7=O)c6)CC5)CC4)ncc3Cl)ccc2n(C)c1=O (centres unmarked) [compound 319, 3-[4-({4-[5-chloro-4-({1-methyl-3-[(methylcarbamoyl)methoxy]-2-oxo-1,2-dihydroquinolin-6-yl}amino)pyrimidin-2-yl]piperazin-1-yl}methyl)piperidin-1-yl]-N-(2,6-dioxopiperidin-3-yl)benzamide]",50 to 100,< 50
"CCn1c(=O)c(OCC(=O)NC)cc2cc(Nc3nc(N4CCC(CN5CCC(c6ccc7c(c6)C(=O)N(C6CCC(=O)NC6=O)C7=O)CC5)CC4)ncc3Cl)ccc21 (centres unmarked) [compound 364, 2-{[6-({5-chloro-2-[4-({4-[2-(2,6-dioxopiperidin-3-yl)-1,3-dioxo-2,3-dihydro-1H-isoindol-5-yl]piperidin-1-yl}methyl)piperidin-1-yl]pyrimidin-4-yl}amino)-1-ethyl-2-oxo-1,2-dihydroquinolin-3-yl]oxy}-N-methylacetamide]",10 to 50,≥ 70
"CCCCn1c(=O)c(OCC(=O)NC)cc2cc(Nc3nc(N4CCC[C@H](COc5cccc6c5C(=O)N(C5CCC(=O)NC5=O)C6=O)C4)ncc3Cl)ccc21 (stereo partly drawn) [compound 324, 2-{[1-butyl-6-({5-chloro-2-[(3S)-3-({[2-(2,6-dioxopiperidin-3-yl)-1,3-dioxo-2,3-dihydro-1H-isoindol-4-yl]oxy}methyl)piperidin-1-yl]pyrimidin-4-yl}amino)-2-oxo-1,2-dihydroquinolin-3-yl]oxy}-N-methylacetamide]",< 10,50 to 70
"CCCOc1cc(N2CCC(CN3CCN(c4ncc(Cl)c(Nc5ccc6c(c5)cc(OCC(=O)NC)c(=O)n6C)n4)CC3)CC2)ccc1C(=O)NC1CCC(=O)NC1=O (centres unmarked) [compound 345, 4-[4-({4-[5-chloro-4-({1-methyl-3-[(methylcarbamoyl)methoxy]-2-oxo-1,2-dihydroquinolin-6-yl}amino)pyrimidin-2-yl]piperazin-1-yl}methyl)piperidin-1-yl]-N-(2,6-dioxopiperidin-3-yl)-2-propoxybenzamide]",≥ 100,–

# Same assay, conditions: class symbols A-D, read-out: EC50 (nM)*
row,Structure (SMILES),DC50 [nM]
1,"CNC(=O)COc1cc2cc(Nc3nc(N4CCC(OCCOCCOCCOc5cccc(CCOc6ccc7c(c6)CN(C6CCC(=O)NC6=O)C7=O)c5)CC4)ncc3Cl)ccc2n(C)c1=O (centres unmarked) [compound 100, 2-((6-((5-chloro-2-(4-(2-(2-(2-(3-(2-((2-(2,6-dioxopiperidin-3-yl)-1-oxoisoindolin-5-yl)oxy)ethyl)phenoxy)ethoxy)ethoxy)ethoxy)piperidin-1-yl)pyrimidin-4-yl)amino)-1-methyl-2-oxo-1,2-dihydroquinolin-3-yl)oxy)-N-methylacetamide]",> 100
2,"CNC(=O)COc1cc2cc(Nc3nc(N4CCC(OCCOCCOCCCOCCCOc5ccc6c(c5)CN(C5CCC(=O)NC5=O)C6=O)CC4)ncc3Cl)ccc2n(C)c1=O (centres unmarked) [compound 145, 2-((6-((5-chloro-2-(4-(2-(2-(3-(3-((2-(2,6-dioxopiperidin-3-yl)-1-oxoisoindolin-5-yl)oxy)propoxy)propoxy)ethoxy)ethoxy)piperidin-1-yl)pyrimidin-4-yl)amino)-1-methyl-2-oxo-1,2-dihydroquinolin-3-yl)oxy)-N-methylacetamide]",50 to 100
